PMC4823954, “From fighting depression to conquering tumors: a novel tricyclic thiazepine compound as a tubulin polymerization inhibitor” (Cell Death & Disease, 2016)

How the values were obtained:
Assay in all cases: KINOMEscan
Assay type in all cases: binding
Conditions in all cases: read-out: % Ctrl
MERTK = target: T1, MERTK (Homo sapiens, UniProt Q12866)
T1 construct: purchased DiscoveRx KINOMEscan
Experimental: (§1) The binding assay for 442 non-mutant kinases was performed using KINOMEscan (DiscoveRx Corporation, Fremont, CA, USA) as reported previously.[58], [59] TBPT was screened at concentrations of 5 and 10 μM to identify the affected kinases. KINOMEscan is based on a competition reaction that quantitatively measures the ability of a test compound to compete with an active site-directed ligand for binding to the kinase active site. […] After the assay plates were incubated with shaking for 1 h, the liganded beads were washed with washing buffer (1 × PBS and 0.05% Tween 20). Then, the beads were re-suspended in elution buffer (1 × PBS, 0.05% Tween 20, and 0.5 μM ligand) and incubated with shaking for 30 min. The kinase concentration in the eluates was measured via qPCR. The results are represented as ‘%Ctrl', which was calculated using the following formula: (test compound signal–positive control signal)/(DMSO signal–positive control signal) × 100%. A lower % Ctrl indicates stronger binding to the kinase active site.

MARK2 = target: T2, MARK2 (Homo sapiens, UniProt Q7KZI7)
T2 construct: purchased DiscoveRx KINOMEscan
Experimental: as §1

EGFR(E746-A750del) = target: T3, EGFR(E746-A750del) (Homo sapiens, UniProt P00533, DEL746-750)
T3 construct: purchased DiscoveRx KINOMEscan
Experimental: as §1

DCAMKL1 = target: T4, DCAMKL1 (Homo sapiens, UniProt O15075)
T4 construct: purchased DiscoveRx KINOMEscan
T4 sequence (O15075 whole entry): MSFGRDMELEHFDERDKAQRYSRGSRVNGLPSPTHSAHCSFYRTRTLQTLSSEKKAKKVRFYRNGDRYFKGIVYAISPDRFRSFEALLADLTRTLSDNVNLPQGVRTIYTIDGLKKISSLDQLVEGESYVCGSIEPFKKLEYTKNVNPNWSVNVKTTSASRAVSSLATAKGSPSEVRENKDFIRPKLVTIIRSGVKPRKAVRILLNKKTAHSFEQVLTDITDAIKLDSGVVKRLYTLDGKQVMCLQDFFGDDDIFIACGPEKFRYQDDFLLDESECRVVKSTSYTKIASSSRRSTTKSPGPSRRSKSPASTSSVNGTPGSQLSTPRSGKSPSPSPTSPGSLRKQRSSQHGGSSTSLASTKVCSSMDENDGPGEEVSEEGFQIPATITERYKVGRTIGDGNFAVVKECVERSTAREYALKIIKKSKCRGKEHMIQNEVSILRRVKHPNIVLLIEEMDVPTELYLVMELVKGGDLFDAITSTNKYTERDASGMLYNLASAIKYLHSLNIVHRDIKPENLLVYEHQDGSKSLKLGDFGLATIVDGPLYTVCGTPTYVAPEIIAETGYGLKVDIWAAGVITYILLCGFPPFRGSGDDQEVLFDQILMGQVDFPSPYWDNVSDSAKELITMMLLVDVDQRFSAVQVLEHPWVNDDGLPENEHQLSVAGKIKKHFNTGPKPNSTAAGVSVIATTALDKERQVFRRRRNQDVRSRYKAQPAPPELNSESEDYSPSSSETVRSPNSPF
Experimental: as §1

CLK1 = target: T5, CLK1 (Homo sapiens, UniProt P49759)
T5 construct: purchased DiscoveRx KINOMEscan
Experimental: as §1

[1] = target: T6, RSK3(Kin.Dom.1-N-terminal) (Homo sapiens, UniProt Q15349)
T6 construct: RSK3(Kin.Dom.1-N-terminal); purchased DiscoveRx KINOMEscan
T6 sequence (Q15349 1-388 limits assumed): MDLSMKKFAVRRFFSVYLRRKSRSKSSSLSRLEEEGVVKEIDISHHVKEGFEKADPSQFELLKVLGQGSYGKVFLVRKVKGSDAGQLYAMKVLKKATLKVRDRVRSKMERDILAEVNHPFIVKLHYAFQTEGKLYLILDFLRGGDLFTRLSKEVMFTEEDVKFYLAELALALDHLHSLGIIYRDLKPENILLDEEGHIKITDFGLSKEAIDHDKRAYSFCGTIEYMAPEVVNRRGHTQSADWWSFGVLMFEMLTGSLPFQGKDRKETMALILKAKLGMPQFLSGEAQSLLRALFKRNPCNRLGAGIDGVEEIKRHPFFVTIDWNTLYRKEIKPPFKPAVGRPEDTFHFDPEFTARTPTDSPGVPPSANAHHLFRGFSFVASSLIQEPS
Experimental: as §1

NEK2 = target: T7, NEK2 (Homo sapiens, UniProt P51955)
T7 construct: purchased DiscoveRx KINOMEscan
T7 sequence (P51955 whole entry): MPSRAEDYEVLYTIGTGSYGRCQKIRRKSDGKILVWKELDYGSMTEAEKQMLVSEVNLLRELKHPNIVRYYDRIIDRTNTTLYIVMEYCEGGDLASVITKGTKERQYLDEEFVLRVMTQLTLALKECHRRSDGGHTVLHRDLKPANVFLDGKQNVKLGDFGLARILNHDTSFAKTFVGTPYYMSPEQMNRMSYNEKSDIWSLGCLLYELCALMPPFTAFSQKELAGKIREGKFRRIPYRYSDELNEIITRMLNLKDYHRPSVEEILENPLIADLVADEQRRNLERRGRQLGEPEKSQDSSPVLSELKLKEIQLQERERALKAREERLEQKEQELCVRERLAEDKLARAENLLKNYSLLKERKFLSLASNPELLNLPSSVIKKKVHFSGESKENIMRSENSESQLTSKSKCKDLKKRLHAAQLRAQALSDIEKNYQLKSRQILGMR
Experimental: as §1

TRKB = target: T8, TRKB (Homo sapiens, UniProt Q16620)
T8 construct: purchased DiscoveRx KINOMEscan
Experimental: as §1

CDK8 = target: T9, CDK8 (Homo sapiens, UniProt P49336)
T9 construct: purchased DiscoveRx KINOMEscan
Experimental: as §1

LZK = target: T10, LZK (Homo sapiens, UniProt O43283)
T10 construct: purchased DiscoveRx KINOMEscan
Experimental: as §1

ROS1 = target: T11, ROS1 (Homo sapiens, UniProt P08922)
T11 construct: purchased DiscoveRx KINOMEscan
Experimental: as §1

WEE1 = target: T12, WEE1 (Homo sapiens, UniProt P30291)
T12 construct: purchased DiscoveRx KINOMEscan
T12 sequence (P30291 whole entry): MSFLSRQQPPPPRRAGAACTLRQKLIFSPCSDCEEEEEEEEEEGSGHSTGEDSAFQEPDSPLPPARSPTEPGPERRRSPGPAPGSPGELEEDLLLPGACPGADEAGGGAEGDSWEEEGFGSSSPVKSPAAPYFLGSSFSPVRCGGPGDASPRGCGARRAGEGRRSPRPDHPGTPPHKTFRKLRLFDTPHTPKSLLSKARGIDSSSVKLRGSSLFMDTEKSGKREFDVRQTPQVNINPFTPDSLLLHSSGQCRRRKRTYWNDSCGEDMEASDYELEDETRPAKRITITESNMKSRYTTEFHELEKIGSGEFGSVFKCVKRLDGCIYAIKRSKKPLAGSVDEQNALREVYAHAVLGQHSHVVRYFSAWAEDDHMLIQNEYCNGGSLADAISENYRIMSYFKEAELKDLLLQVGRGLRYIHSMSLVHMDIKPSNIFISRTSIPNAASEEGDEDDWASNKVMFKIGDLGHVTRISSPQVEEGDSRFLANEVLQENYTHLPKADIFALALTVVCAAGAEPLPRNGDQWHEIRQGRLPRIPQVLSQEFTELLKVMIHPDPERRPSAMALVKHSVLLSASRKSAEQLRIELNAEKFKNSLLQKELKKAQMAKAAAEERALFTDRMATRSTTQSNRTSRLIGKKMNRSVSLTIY
Experimental: as §1

TESK1 = target: T13, TESK1 (Homo sapiens, UniProt Q15569)
T13 construct: purchased DiscoveRx KINOMEscan
Experimental: as §1

[2] = target: T14, RSK1(Kin.Dom.2-C-terminal) (Homo sapiens, UniProt Q15418)
T14 construct: RSK1(Kin.Dom.2-C-terminal); purchased DiscoveRx KINOMEscan
Experimental: as §1

ARK5 = target: T15, ARK5 (Homo sapiens, UniProt O60285)
T15 construct: purchased DiscoveRx KINOMEscan
Experimental: as §1

DYRK1A = target: T16, DYRK1A (Homo sapiens, UniProt Q13627)
T16 construct: purchased DiscoveRx KINOMEscan
Experimental: as §1

DYRK2 = target: T17, DYRK2 (Homo sapiens, UniProt Q92630)
T17 construct: purchased DiscoveRx KINOMEscan
Experimental: as §1

FGFR1 = target: T18, FGFR1 (Homo sapiens, UniProt P11362)
T18 construct: purchased DiscoveRx KINOMEscan
T18 sequence (P11362 22-822): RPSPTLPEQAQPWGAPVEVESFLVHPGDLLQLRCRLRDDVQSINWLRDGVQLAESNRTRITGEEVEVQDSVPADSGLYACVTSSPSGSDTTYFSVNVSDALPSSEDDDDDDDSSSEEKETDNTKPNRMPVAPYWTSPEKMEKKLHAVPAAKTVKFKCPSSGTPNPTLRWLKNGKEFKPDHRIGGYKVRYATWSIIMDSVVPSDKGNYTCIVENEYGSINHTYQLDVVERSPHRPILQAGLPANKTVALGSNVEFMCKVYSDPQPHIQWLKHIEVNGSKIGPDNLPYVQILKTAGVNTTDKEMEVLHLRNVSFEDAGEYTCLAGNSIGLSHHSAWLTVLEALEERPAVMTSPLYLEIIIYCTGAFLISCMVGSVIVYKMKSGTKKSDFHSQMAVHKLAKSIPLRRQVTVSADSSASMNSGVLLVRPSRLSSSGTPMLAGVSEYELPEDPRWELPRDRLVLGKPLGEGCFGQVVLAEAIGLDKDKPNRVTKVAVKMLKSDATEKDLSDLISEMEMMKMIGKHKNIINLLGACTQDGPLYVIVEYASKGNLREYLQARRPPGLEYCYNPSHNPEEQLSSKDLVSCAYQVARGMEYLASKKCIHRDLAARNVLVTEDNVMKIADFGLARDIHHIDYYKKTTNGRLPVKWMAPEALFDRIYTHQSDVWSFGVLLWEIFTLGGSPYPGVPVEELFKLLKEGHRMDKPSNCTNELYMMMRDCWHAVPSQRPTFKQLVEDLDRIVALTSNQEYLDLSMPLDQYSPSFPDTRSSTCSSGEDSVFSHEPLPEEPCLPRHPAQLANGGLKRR
Experimental: as §1

LYN = target: T19, LYN (Homo sapiens, UniProt P07948)
T19 construct: purchased DiscoveRx KINOMEscan
T19 sequence (P07948 whole entry): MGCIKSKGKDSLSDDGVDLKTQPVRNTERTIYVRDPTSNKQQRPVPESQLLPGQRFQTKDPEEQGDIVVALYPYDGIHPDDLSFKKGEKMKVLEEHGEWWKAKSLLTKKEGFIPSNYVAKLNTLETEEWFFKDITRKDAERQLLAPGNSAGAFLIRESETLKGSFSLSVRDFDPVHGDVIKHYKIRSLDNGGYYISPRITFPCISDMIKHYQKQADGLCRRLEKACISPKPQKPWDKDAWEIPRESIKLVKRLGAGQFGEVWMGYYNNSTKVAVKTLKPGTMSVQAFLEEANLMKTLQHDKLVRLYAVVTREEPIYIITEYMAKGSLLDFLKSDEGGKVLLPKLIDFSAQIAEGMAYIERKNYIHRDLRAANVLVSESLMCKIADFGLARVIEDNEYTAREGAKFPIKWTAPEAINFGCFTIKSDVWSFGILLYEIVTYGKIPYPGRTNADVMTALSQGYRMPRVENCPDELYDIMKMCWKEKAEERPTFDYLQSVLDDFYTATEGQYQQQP
Experimental: as §1

SNARK = target: T20, SNARK (Homo sapiens, UniProt Q9H093)
T20 construct: purchased DiscoveRx KINOMEscan
Experimental: as §1

MARK1 = target: T21, MARK1 (Homo sapiens, UniProt Q9P0L2)
T21 construct: purchased DiscoveRx KINOMEscan
Experimental: as §1

DCAMKL3 = target: T22, DCAMKL3 (Homo sapiens, UniProt Q9C098)
T22 construct: purchased DiscoveRx KINOMEscan
T22 sequence (Q9C098 whole entry): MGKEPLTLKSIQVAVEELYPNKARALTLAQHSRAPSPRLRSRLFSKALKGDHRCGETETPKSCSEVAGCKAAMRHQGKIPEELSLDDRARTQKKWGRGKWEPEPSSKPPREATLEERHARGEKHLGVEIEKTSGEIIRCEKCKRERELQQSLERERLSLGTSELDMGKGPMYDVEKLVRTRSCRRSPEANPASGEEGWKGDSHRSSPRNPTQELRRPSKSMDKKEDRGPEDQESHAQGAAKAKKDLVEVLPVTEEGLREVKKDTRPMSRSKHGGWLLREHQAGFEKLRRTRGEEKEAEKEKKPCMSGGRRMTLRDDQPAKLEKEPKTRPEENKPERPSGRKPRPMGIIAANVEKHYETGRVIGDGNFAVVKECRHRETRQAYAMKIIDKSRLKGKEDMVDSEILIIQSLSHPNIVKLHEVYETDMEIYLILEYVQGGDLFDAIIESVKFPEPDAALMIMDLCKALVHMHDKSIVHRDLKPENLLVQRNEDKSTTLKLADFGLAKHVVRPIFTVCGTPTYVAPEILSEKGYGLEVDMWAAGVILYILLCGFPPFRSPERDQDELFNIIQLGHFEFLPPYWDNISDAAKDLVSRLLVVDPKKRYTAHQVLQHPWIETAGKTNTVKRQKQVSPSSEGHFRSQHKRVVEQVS
Experimental: as §1

CDKL2 = target: T23, CDKL2 (Homo sapiens, UniProt Q92772)
T23 construct: purchased DiscoveRx KINOMEscan
Experimental: as §1

IRAK3 = target: T24, IRAK3 (Homo sapiens, UniProt Q9Y616)
T24 construct: purchased DiscoveRx KINOMEscan
Experimental: as §1

STK39 = target: T25, STK39 (Homo sapiens, UniProt Q9UEW8)
T25 construct: purchased DiscoveRx KINOMEscan
Experimental: as §1

[3] = target: T26, JAK1(JH1domain-catalytic) (Homo sapiens, UniProt P23458)
T26 construct: JAK1(JH1domain-catalytic); purchased DiscoveRx KINOMEscan
T26 sequence (P23458 854-1154 limits assumed): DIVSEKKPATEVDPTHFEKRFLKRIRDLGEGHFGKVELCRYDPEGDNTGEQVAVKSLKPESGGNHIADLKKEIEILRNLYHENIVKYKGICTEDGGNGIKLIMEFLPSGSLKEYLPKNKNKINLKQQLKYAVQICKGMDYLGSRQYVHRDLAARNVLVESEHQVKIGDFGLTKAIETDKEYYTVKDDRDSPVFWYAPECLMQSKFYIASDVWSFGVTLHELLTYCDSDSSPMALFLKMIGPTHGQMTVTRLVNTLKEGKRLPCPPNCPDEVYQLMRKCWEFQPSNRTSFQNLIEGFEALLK
Experimental: as §1

CSNK1G3 = target: T27, CSNK1G3 (Homo sapiens, UniProt Q9Y6M4)
T27 construct: purchased DiscoveRx KINOMEscan
T27 sequence (Q9Y6M4 whole entry): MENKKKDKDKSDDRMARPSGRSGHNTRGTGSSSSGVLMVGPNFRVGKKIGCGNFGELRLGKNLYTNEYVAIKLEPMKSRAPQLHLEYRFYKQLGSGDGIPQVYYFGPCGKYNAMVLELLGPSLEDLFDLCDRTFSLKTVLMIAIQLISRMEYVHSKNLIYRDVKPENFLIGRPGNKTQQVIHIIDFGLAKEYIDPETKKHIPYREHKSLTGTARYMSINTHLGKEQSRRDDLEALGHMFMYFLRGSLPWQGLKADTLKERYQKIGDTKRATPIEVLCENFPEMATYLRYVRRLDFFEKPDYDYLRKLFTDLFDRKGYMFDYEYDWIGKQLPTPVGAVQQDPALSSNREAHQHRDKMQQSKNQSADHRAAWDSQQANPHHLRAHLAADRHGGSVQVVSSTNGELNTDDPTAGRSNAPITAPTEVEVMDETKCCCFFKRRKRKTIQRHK
Experimental: as §1

PAK1 = target: T28, PAK1 (Homo sapiens, UniProt Q13153)
T28 construct: purchased DiscoveRx KINOMEscan
Experimental: as §1

MYLK = target: T29, MYLK (Homo sapiens, UniProt Q15746)
T29 construct: purchased DiscoveRx KINOMEscan
Experimental: as §1

Work on Cc1ccc(C2=Nc3cccnc3S(=O)(=O)c3ccccc32)cc1 [TBPT, 6-(p-tolyl)benzo[f] pyrido[2,3-b][1,4] thiazepine 11,11-dioxide] yielded a remaining binding at 5 µM (MERTK; 5 μM) of 100%, a remaining binding at 10 µM (MERTK; 10 μM) of 80% and a remaining binding at 5 µM (MARK2; 5 μM) of 86%. The remaining binding at 10 µM (MARK2; 10 μM) was 84%, the remaining binding at 5 µM (EGFR(E746-A750del); 5 μM) was 81% and the remaining binding at 10 µM (EGFR(E746-A750del); 10 μM) was 100%. For the same compound, the remaining binding at 5 µM (DCAMKL1; 5 μM) was 100%, the remaining binding at 10 µM (DCAMKL1; 10 μM) was 89% and the remaining binding at 5 µM (CLK1; 5 μM) was 95%. It also gave a remaining binding at 10 µM (CLK1; 10 μM) of 100%, a remaining binding at 5 µM ([1]; 5 μM) of 100% and a remaining binding at 10 µM ([1]; 10 μM) of 82%. For the same compound, the remaining binding at 5 µM (NEK2; 5 μM) was 92%, the remaining binding at 10 µM (NEK2; 10 μM) was 81% and the remaining binding at 5 µM (TRKB; 5 μM) was 96%. For the same compound, the remaining binding at 10 µM (TRKB; 10 μM) was 100%, the remaining binding at 5 µM (CDK8; 5 μM) was 94% and the remaining binding at 10 µM (CDK8; 10 μM) was 100%. It also gave a remaining binding at 5 µM (LZK; 5 μM) of 100%, a remaining binding at 10 µM (LZK; 10 μM) of 93% and a remaining binding at 5 µM (ROS1; 5 μM) of 100%. The remaining binding at 10 µM (ROS1; 10 μM) was 100%, the remaining binding at 5 µM (WEE1; 5 μM) was 100% and the remaining binding at 10 µM (WEE1; 10 μM) was 96%. For the same compound, the remaining binding at 5 µM (TESK1; 5 μM) was 87%, the remaining binding at 10 µM (TESK1; 10 μM) was 95% and the remaining binding at 5 µM ([2]; 5 μM) was 100%. The remaining binding at 10 µM ([2]; 10 μM) was 98%, the remaining binding at 5 µM (ARK5; 5 μM) was 100% and the remaining binding at 10 µM (ARK5; 10 μM) was 100%. The remaining binding at 5 µM (DYRK1A; 5 μM) was 88%, the remaining binding at 10 µM (DYRK1A; 10 μM) was 100% and the remaining binding at 5 µM (DYRK2; 5 μM) was 93%. The remaining binding at 10 µM (DYRK2; 10 μM) was 100%, the remaining binding at 5 µM (FGFR1; 5 μM) was 98% and the remaining binding at 10 µM (FGFR1; 10 μM) was 100%. For the same compound, the remaining binding at 5 µM (LYN; 5 μM) was 87%, the remaining binding at 10 µM (LYN; 10 μM) was 100% and the remaining binding at 5 µM (SNARK; 5 μM) was 100%. It also gave a remaining binding at 10 µM (SNARK; 10 μM) of 100%, a remaining binding at 5 µM (MARK1; 5 μM) of 89% and a remaining binding at 10 µM (MARK1; 10 μM) of 100%. The remaining binding at 5 µM (DCAMKL3; 5 μM) was 100%, the remaining binding at 10 µM (DCAMKL3; 10 μM) was 79% and the remaining binding at 5 µM (CDKL2; 5 μM) was 95%. The remaining binding at 10 µM (CDKL2; 10 μM) was 100%, the remaining binding at 5 µM (IRAK3; 5 μM) was 92% and the remaining binding at 10 µM (IRAK3; 10 μM) was 82%. It also gave a remaining binding at 5 µM (STK39; 5 μM) of 100%, a remaining binding at 10 µM (STK39; 10 μM) of 62% and a remaining binding at 5 µM ([3]; 5 μM) of 95%. It also gave a remaining binding at 10 µM ([3]; 10 μM) of 89%, a remaining binding at 5 µM (CSNK1G3; 5 μM) of 100% and a remaining binding at 10 µM (CSNK1G3; 10 μM) of 98%. For the same compound, the remaining binding at 5 µM (PAK1; 5 μM) was 81%, the remaining binding at 10 µM (PAK1; 10 μM) was 92% and the remaining binding at 5 µM (MYLK; 5 μM) was 100%. For the same compound, the remaining binding at 10 µM (MYLK; 10 μM) was 81%.
